From ChEMBL document CHEMBL4316596, “Antimicrobial Peptides with High Proteolytic Resistance for Combating Gram-Negative Bacteria” (J Med Chem, 2019)

Tests used:
Escherichia coli [1] = assay: Antimicrobial activity against Escherichia coli K88 after 24 hrs by NCCLS-protocol based assay; type: functional; conditions: K88, 24 h
Pseudomonas aeruginosa [2] = assay: Antimicrobial activity against Pseudomonas aeruginosa CICC 21630 clinical isolates after 24 hrs by NCCLS-protocol based assay; type: functional; conditions: CICC 21630, 24 h
Escherichia coli [3] = assay: Bactericidal activity against Escherichia coli UB1005 incubated for 4 hrs followed by culture spread on agar plates and cultured overnight; type: functional; conditions: UB1005, 4 h, read-out: MBC>99.9
Acinetobacter baumannii [4] = assay: Antimicrobial activity against Acinetobacter baumannii after 24 hrs by NCCLS-protocol based assay; type: functional
Escherichia coli [5] = assay: Bactericidal activity against Escherichia coli 078 incubated for 4 hrs followed by culture spread on agar plates and cultured overnight; type: functional; conditions: Escherichia coli, 078, 4 h; read-out: MBC>99.9
Pseudomonas aeruginosa [6] = assay: Bactericidal activity against Pseudomonas aeruginosa 25349 clinical isolates incubated for 4 hrs followed by culture spread on agar plates and cultured overnight; type: functional; conditions: Pseudomonas aeruginosa, 25349, 4 h; read-out: MBC>99.9
Klebsiella pneumoniae [7] = assay: Bactericidal activity against Klebsiella pneumoniae incubated for 4 hrs followed by culture spread on agar plates and cultured overnight; type: functional; conditions: read-out: MBC>99.9
[8] = Antimicrobial activity against Salmonella pullorum C7913 after 24 hrs by NCCLS-protocol based assay; type: functional, Salmonella enterica subsp. enterica serovar Pullorum; conditions: Salmonella enterica, C7913, 24 h
Pseudomonas aeruginosa [9] = assay: Bactericidal activity against Pseudomonas aeruginosa 26305 clinical isolates incubated for 4 hrs followed by culture spread on agar plates and cultured overnight; type: functional; conditions: Pseudomonas aeruginosa, 26305, 4 h; read-out: MBC>99.9
Klebsiella pneumoniae [10] = assay: Antimicrobial activity against Klebsiella pneumoniae after 24 hrs by NCCLS-protocol based assay; type: functional
[11] = Bactericidal activity against Salmonella pullorum C7913 incubated for 4 hrs followed by culture spread on agar plates and cultured overnight; type: functional, Salmonella enterica subsp. enterica serovar Pullorum; conditions: Salmonella enterica, C7913, 4 h; read-out: MBC>99.9
Escherichia coli [12] = assay: Bactericidal activity against Escherichia coli ATCC 25922 incubated for 4 hrs followed by culture spread on agar plates and cultured overnight; type: functional; conditions: ATCC 25922, 4 h, read-out: MBC>99.9
Pseudomonas aeruginosa [13] = assay: Bactericidal activity against Pseudomonas aeruginosa CICC 21625 clinical isolates incubated for 4 hrs followed by culture spread on agar plates and cultured overnight; type: functional; conditions: CICC 21625, 4 h, read-out: MBC>99.9
Pseudomonas aeruginosa [14] = assay: Antimicrobial activity against Pseudomonas aeruginosa CICC 21625 clinical isolates after 24 hrs by NCCLS-protocol based assay; type: functional; conditions: CICC 21625, 24 h
Escherichia coli [15] = assay: Antimicrobial activity against Escherichia coli 078 after 24 hrs by NCCLS-protocol based assay; type: functional; conditions: Escherichia coli, 078, 24 h
Pseudomonas aeruginosa [16] = assay: Antimicrobial activity against Pseudomonas aeruginosa 26305 clinical isolates after 24 hrs by NCCLS-protocol based assay; type: functional; conditions: Pseudomonas aeruginosa, 26305, 24 h
Salmonella typhimurium [17] = assay: Antimicrobial activity against Salmonella typhimurium C7731 after 24 hrs by NCCLS-protocol based assay; type: functional, Salmonella enterica subsp. enterica serovar Typhimurium; conditions: Salmonella enterica, C7731, 24 h
Pseudomonas aeruginosa [18] = assay: Antimicrobial activity against Pseudomonas aeruginosa PAO1 after 24 hrs by NCCLS-protocol based assay; type: functional; conditions: PAO1, 24 h
Escherichia coli [19] = assay: Antimicrobial activity against Escherichia coli ATCC 25922 after 24 hrs by NCCLS-protocol based assay; type: functional; conditions: ATCC 25922, 24 h
Escherichia coli [20] = assay: Antimicrobial activity against Escherichia coli UB1005 after 24 hrs by NCCLS-protocol based assay; type: functional; conditions: UB1005, 24 h
Escherichia coli [21] = assay: Bactericidal activity against Escherichia coli K99 incubated for 4 hrs followed by culture spread on agar plates and cultured overnight; type: functional; conditions: K99, 4 h, read-out: MBC>99.9
Salmonella typhimurium [22] = assay: Antimicrobial activity against Salmonella typhimurium ATCC 14028 after 24 hrs by NCCLS-protocol based assay; type: functional, Salmonella enterica subsp. enterica serovar Typhimurium; conditions: Salmonella enterica, ATCC 14028, 24 h
Salmonella typhimurium [23] = assay: Bactericidal activity against Salmonella typhimurium ATCC 14028 incubated for 4 hrs followed by culture spread on agar plates and cultured overnight; type: functional, Salmonella enterica subsp. enterica serovar Typhimurium; conditions: Salmonella enterica, ATCC 14028, 4 h; read-out: MBC>99.9
Escherichia coli [24] = assay: Bactericidal activity against Escherichia coli K88 incubated for 4 hrs followed by culture spread on agar plates and cultured overnight; type: functional; conditions: K88, 4 h, read-out: MBC>99.9
Pseudomonas aeruginosa [25] = assay: Antimicrobial activity against Pseudomonas aeruginosa ATCC 27853 after 24 hrs by NCCLS-protocol based assay; type: functional; conditions: ATCC 27853, 24 h
Pseudomonas aeruginosa [26] = assay: Antimicrobial activity against Pseudomonas aeruginosa 25349 clinical isolates after 24 hrs by NCCLS-protocol based assay; type: functional; conditions: Pseudomonas aeruginosa, 25349, 24 h
Pseudomonas aeruginosa [27] = assay: Bactericidal activity against Pseudomonas aeruginosa ATCC 27853 incubated for 4 hrs followed by culture spread on agar plates and cultured overnight; type: functional; conditions: ATCC 27853, 4 h, read-out: MBC>99.9
Pseudomonas aeruginosa [28] = assay: Bactericidal activity against Pseudomonas aeruginosa PAO1 incubated for 4 hrs followed by culture spread on agar plates and cultured overnight; type: functional; conditions: PAO1, 4 h, read-out: MBC>99.9
Escherichia coli [29] = assay: Antimicrobial activity against Escherichia coli K99 after 24 hrs by NCCLS-protocol based assay; type: functional; conditions: K99, 24 h
Salmonella typhimurium [30] = assay: Bactericidal activity against Salmonella typhimurium C7731 incubated for 4 hrs followed by culture spread on agar plates and cultured overnight; type: functional, Salmonella enterica subsp. enterica serovar Typhimurium; conditions: Salmonella enterica, C7731, 4 h; read-out: MBC>99.9
Acinetobacter baumannii [31] = assay: Bactericidal activity against Acinetobacter baumannii incubated for 4 hrs followed by culture spread on agar plates and cultured overnight; type: functional; conditions: read-out: MBC>99.9
Pseudomonas aeruginosa [32] = assay: Bactericidal activity against Pseudomonas aeruginosa CICC 21630 clinical isolates incubated for 4 hrs followed by culture spread on agar plates and cultured overnight; type: functional; conditions: CICC 21630, 4 h, read-out: MBC>99.9

| MIC95 (Escherichia coli [1]) [µM] | MIC95 (Pseudomonas aeruginosa [2]) [µM] | MIC95 (Acinetobacter baumannii [4]) [µM] | MIC95 [8] [µM] | MIC95 (Klebsiella pneumoniae [10]) [µM] | MIC95 (Pseudomonas aeruginosa [14]) [µM] | MIC95 (Escherichia coli [15]) [µM] | MIC95 (Pseudomonas aeruginosa [16]) [µM] | MIC95 (Salmonella typhimurium [17]) [µM] | MIC95 (Pseudomonas aeruginosa [18]) [µM] | MIC95 (Escherichia coli [19]) [µM] | MIC95 (Escherichia coli [20]) [µM] | Substance | MBC (Escherichia coli [3]) [µM] | MBC (Escherichia coli [5]) [µM] | MBC (Pseudomonas aeruginosa [6]) [µM] | MBC (Klebsiella pneumoniae [7]) [µM] | MBC (Pseudomonas aeruginosa [9]) [µM] | MBC [11] [µM] | MBC (Escherichia coli [12]) [µM] | MBC (Pseudomonas aeruginosa [13]) [µM] | other results |
| --- | --- | --- | --- | --- | --- | --- | --- | --- | --- | --- | --- | --- | --- | --- | --- | --- | --- | --- | --- | --- | --- |
| > 64 | > 64 | > 64 | > 64 | > 64 | > 64 | > 64 | > 64 | > 64 | > 64 | > 64 | > 64 | H-VKPVVKPVVKPVVKPVVKPVVKPV-NH2 | > 64 | > 64 | > 64 | > 64 | > 64 | > 64 | > 64 | > 64 | MBC (Escherichia coli [21]): > 64 µM; MIC95 (Salmonella typhimurium [22]): > 64 µM; MBC (Salmonella typhimurium [23]): > 64 µM; MBC (Escherichia coli [24]): > 64 µM; MIC95 (Pseudomonas aeruginosa [25]): > 64 µM; MIC95 (Pseudomonas aeruginosa [26]): > 64 µM; MBC (Pseudomonas aeruginosa [27]): > 64 µM; MBC (Pseudomonas aeruginosa [28]): > 64 µM; MIC95 (Escherichia coli [29]): > 64 µM; MBC (Salmonella typhimurium [30]): > 64 µM; MBC (Acinetobacter baumannii [31]): > 64 µM; MBC (Pseudomonas aeruginosa [32]): > 64 µM |
| > 64 | > 64 | > 64 | > 64 | > 64 | > 64 | > 64 | > 64 | > 64 | > 64 | > 64 | > 64 | H-VKPVVKPVVKPVVKPVVKPVVKPVVKPV-NH2 | > 64 | > 64 | > 64 | > 64 | > 64 | > 64 | > 64 | > 64 | MBC (Escherichia coli [21]): > 64 µM; MIC95 (Salmonella typhimurium [22]): > 64 µM; MBC (Salmonella typhimurium [23]): > 64 µM; MBC (Escherichia coli [24]): > 64 µM; MIC95 (Pseudomonas aeruginosa [25]): > 64 µM; MIC95 (Pseudomonas aeruginosa [26]): > 64 µM; MBC (Pseudomonas aeruginosa [27]): > 64 µM; MBC (Pseudomonas aeruginosa [28]): > 64 µM; MIC95 (Escherichia coli [29]): > 64 µM; MBC (Salmonella typhimurium [30]): > 64 µM; MBC (Acinetobacter baumannii [31]): > 64 µM; MBC (Pseudomonas aeruginosa [32]): > 64 µM |
| 8 | > 64 | 4 | 8 | > 64 | > 64 | 64 | > 64 | 32 | > 64 | 64 | 32 | H-VRPVVRPVVRPVVRPVVRPVVRPV-NH2 | 32 | > 64 | > 64 | > 64 | > 64 | 16 | > 64 | > 64 | MBC (Escherichia coli [21]): 16 µM; MIC95 (Salmonella typhimurium [22]): 16 µM; MBC (Salmonella typhimurium [23]): 32 µM; MBC (Escherichia coli [24]): 8 µM; MIC95 (Pseudomonas aeruginosa [25]): > 64 µM; MIC95 (Pseudomonas aeruginosa [26]): > 64 µM; MBC (Pseudomonas aeruginosa [27]): > 64 µM; MBC (Pseudomonas aeruginosa [28]): > 64 µM; MIC95 (Escherichia coli [29]): 16 µM; MBC (Salmonella typhimurium [30]): 32 µM; MBC (Acinetobacter baumannii [31]): 4 µM; MBC (Pseudomonas aeruginosa [32]): > 64 µM |
| 8 | > 64 | 4 | 4 | 32 | > 64 | 8 | > 64 | 16 | > 64 | 8 | 8 | H-VRPVVRPVVRPVVRPVVRPVVRPVVRPV-NH2 | 8 | 16 | > 64 | 64 | > 64 | 8 | 16 | > 64 | MBC (Escherichia coli [21]): 32 µM; MIC95 (Salmonella typhimurium [22]): 8 µM; MBC (Salmonella typhimurium [23]): 16 µM; MBC (Escherichia coli [24]): 32 µM; MIC95 (Pseudomonas aeruginosa [25]): > 64 µM; MIC95 (Pseudomonas aeruginosa [26]): > 64 µM; MBC (Pseudomonas aeruginosa [27]): > 64 µM; MBC (Pseudomonas aeruginosa [28]): > 64 µM; MIC95 (Escherichia coli [29]): 16 µM; MBC (Salmonella typhimurium [30]): 32 µM; MBC (Acinetobacter baumannii [31]): 4 µM; MBC (Pseudomonas aeruginosa [32]): > 64 µM |
